Data as given in ChEMBL document CHEMBL1158881, “Puupehenone congeners from an indo-pacific hyrtios sponge” (J Nat Prod, 2003).
Calls of active or inactive are those of the source.

What was measured:
Format in all cases: functional, cell-based
[1] = system: MC-38; experiment: Cytotoxicity against mouse Colon 38 cells by Valeriote soft agar disk diffusion assay
[2] = system: L1210; experiment: Cytotoxicity against mouse L1210 cells by Valeriote soft agar disk diffusion assay
[3] = system: H116; experiment: Cytotoxicity against human H116 cells by Valeriote soft agar disk diffusion assay

Measured: Activity

COc1cc2c(cc1O)O[C@@]1(C)CC[C@H]3C(C)(C)CCC[C@]3(C)C1=C2
inactive: all assays above

COc1cc2c(cc1O)O[C@@]1(C)CC[C@H]3C(C)(C)CCC[C@]3(C)[C@H]1[C@@H]2OC
inactive: all assays above

COC1=CC2=C[C@@H]3[C@@]4(C)CCCC(C)(C)[C@@H]4CC[C@]3(C)OC2=CC1=O
inactive: all assays above
